Where a name gives a salt, the structure may show the parent alone.

Test [1] deals with primary human NSCLC model LU1147 tumors. Description: Antitumor activity in Huprime NSCLC PDX tumor model LU1147. It counts as in vivo, Balb/c nu/nu mice. The note with it: Docetaxel 15 mg/kg, one dose. The protocol:
(§1) These studies were performed at Crown Bioscience (Beijing) Inc., Ground Floor, Light Muller Building, Changping Sector of Zhongguancun Scientific Park, No. 21 Huoju Road, Changping District, Beijing, P.R. China.

In test [2] the test system is primary human NSCLC model LU2505 tumors. Nature of the test: Antitumor activity in Huprime NSCLC PDX tumor model LU2505. It is filed as in vivo, Balb/c nu/nu mice. The note with it: Docetaxel 15 mg/kg, one dose. The protocol:
as §1

For test [3], the system named is primary human Endometrial model ST040 tumors. Description: Antitumor activity in Endometrial ST040 model. It counts as in vivo, Balb/c nu/nu mice. The note with it: Paclitaxel 15 mg/kg, once a week for two weeks (SIW×2); n=3.
The subject of test [4] is FR-positive paclitaxel resistant KB-PR10 tumors. Nature of the test: Antitumor activity on paclitaxel resistant KB-PR10 tumors. It counts as in vivo, nu/nu mice. The note with it: paclitaxel 20 mg/kg, three times a week for two weeks (TIW×2), i.v. As for the experimental part:
Four to six week-old female nu/nu mice (Harlan Sprague Dawley, Inc., Indianapolis, Ind.) were maintained on a standard 12 h light-dark cycle and fed ad libitum with folate-deficient chow (Harlan diet #TD00434, Harlan Teklad, Madison, Wis.) for the duration of the experiment. FR-positive paclitaxel resistant KB-PR10 cells were grown continuously as a monolayer, using folate-free RPMI medium (FFRPMI) containing 5% heat-inactivated fetal calf serum (HIFCS) at 37° C. in a 5% CO2/95% air-humidified atmosphere with no antibiotics. KB-PR10 cells (1×10^6 per nu/nu mouse) in 100 μL were injected in the subcutis of the dorsal medial area. […] Mice were treated with 20 mg/kg Paclitaxel, 2 μmol/kg EC145 (See WO2004/069159 for a description of EC145) or 1 μmol/kg Compound I on a three times a week for 2 weeks schedule when the tumors were approximately 100-145 mm^3, 101-129 mm^3 and 100-140 mm^3 in volume, respectively. The mice in the control groups received no treatment.

Test [5] deals with primary human Ovarian model ST024 tumors. Description: Antitumor activity in Ovarian ST024 model. It counts as in vivo, Balb/c nu/nu mice. The note with it: Paclitaxel 15 mg/kg, once a week for two weeks (SIW×2); n=7.
Test [6] relates to primary human TNBC model ST738 tumors. Description: Antitumor activity in TNBC ST738 model. The note with it: Eribulin mesylate 1 mg/kg, once a week for two weeks (SIW×2); n=7. It counts as in vivo, Balb/c nu/nu mice. As for the experimental part:
(§2) These materials were obtained from and studies were performed at South Texas Accelerated Research Therapeutics, 4383 Medical Drive, San Antonio, Tex. 78229

Test [7] has as its system primary human TNBC model ST502 tumors. Nature of the test: Antitumor activity in TNBC ST502 model. The note with it: Eribulin mesylate 1 mg/kg, once a week for two weeks (SIW×2); n=7. It is filed as in vivo, Balb/c nu/nu mice. As for the experimental part: as §2

On to `CC(=O)O[C@@]12CO[C@@H]1C[C@H](O)[C@@]1(C)C(=O)[C@H](O)C3=C(C)[C@@H](OC(=O)[C@H](O)[C@@H](NC(=O)OC(C)(C)C)c4ccccc4)C[C@@](O)([C@@H](OC(=O)c4ccccc4)[C@H]21)C3(C)C` [Docetaxel], for which the anti-tumor activity result was “minimal anti-tumor activity” in test [1] and “some anti-tumor activity” in test [2].

As to `CC(=O)O[C@H]1C(=O)[C@@]2(C)[C@H]([C@H](OC(=O)c3ccccc3)[C@]3(O)C[C@H](OC(=O)[C@H](O)[C@@H](NC(=O)c4ccccc4)c4ccccc4)C(C)=C1C3(C)C)[C@]1(OC(C)=O)CO[C@@H]1C[C@@H]2O` [Paclitaxel], the anti-tumor activity result in test [3] is on record as “minimal anti-tumor activity”; in test [4], “little to no anti-tumor activity”; in test [5] it was “no anti-tumor activity”. This molecule also registered a partial responses in test [4] of 0.

Turning to `C=C1C[C@@H]2CC[C@@]34C[C@H]5O[C@H]6[C@@H](O3)[C@H]3O[C@H](CC[C@@H]3O[C@H]6[C@H]5O4)CC(=O)C[C@@H]3[C@@H](OC)[C@@H](C[C@H](O)CN)O[C@H]3C[C@H]3O[C@@H](CC[C@@H]1O2)C[C@@H](C)C3=C` [Eribulin mesylate], the values for the anti-tumor activity entry in test [6] and in test [7] were “some anti-tumor activity” and “minimal anti-tumor activity”, respectively.

For the origin of these results see patent US20170348376A1, “TUBULYSIN CONJUGATE FOR USE IN TREATING CANCER” (ENDOCYTE, INC., priority 2016, published 2017).
